The numbers were not newly measured in patent publication US8163752B2, “Tricyclic anilide heterocyclic CGRP receptor antagonists” (Merck, Sharp & Dohme Corp., priority 2007, dated 2012), which cites them from elsewhere.

No end group written: not given here.

In series [1] the test system is acute attacks of migraine. The note with it: clinical trials (Olesen et al. 2004).
Series [2] relates to facial blood flow. The settings on record: marmoset, electrical stimulation of the trigeminal ganglion (Doods et al. 2000).
For series [3], the system named is headache induced by CGRP infusion. The settings on record: control group (Petersen et al. 2005).
A further series concerns middle meningeal artery. The settings on record: rats, electrical stimulation of the dura mater, prior administration (Williamson et al. 1997).
Series [4] deals with facial blood flow. The settings on record: rat, trigeminal ganglion stimulation (Escott et al. 1995).

With `NCCCC[C@H](NC(=O)[C@@H](Cc1cc(Br)c(O)c(Br)c1)NC(=O)N1CCC(N2Cc3ccccc3NC2=O)CC1)C(=O)N1CCN(c2ccncc2)CC1` [BIBN4096BS], in series [1], the “efficacy in treating acute attacks of migraine” value was “effective in treating acute attacks of migraine”. The “effect on increase in facial blood flow” value in the series on facial blood flow [2] is given as “could be blocked”. Moreover, in series [3], the “prevention of headache induced by CGRP infusion” value was “able to prevent headache induced by CGRP infusion”.
For “CGRP(8-37): a peptide CGRP antagonist; fragment of CGRP that lacks seven N-terminal amino acid residues (VTHRLAGLLSRSGGVVKNNFVPTNVGSKAF; ends and bridges not checked; UniProt P06881 90-119, looked up, fragment)”, in the series on middle meningeal artery, the “effect on increase of middle meningeal artery diameter” value is given as “blocked”. Moreover, in the series with facial blood flow [4], the “effect on increased facial blood flow” value was “inhibited”.
